How the values were obtained:
[1] = Clinical study 1, Cohort 1: pharmacokinetic interaction of tegoprazan and amoxicillin/clarithromycin, multiple dose; assay type: in vivo, human
Protocol: To evaluate pharmacokinetic interaction of multiple-dose administration of single and combination of tegoprazan and amoxicillin/clarithromycin, a clinical study was designed in accordance with a randomized, open-label, and multiple-dose design.
A total of 24 subjects who had been determined eligible to participate in the study were randomly assigned in a 1:1 ratio to each one of the two groups. Each randomly-assigned group was administered with investigational medical products as arranged during each intervention period and underwent a clinical study as designed. In consideration of the half-life of each product, a 14-day wash-out period was given between the intervention periods.
A total of 24 subjects were divided into group 1 and group 2. During the first intervention period, subjects of group 1 (12 person) were repeatedly administered with 100 mg of tegoprazan twice a day for four days and administered once a day on the fifth day on which a pharmacokinetic clinical study was conducted. During the second intervention period after a 14-day wash-out period, they were repeatedly administered with 1000 mg of amoxicillin and 500 mg of clarithromycin twice a day for four days and administered once a day on the fifth day. During the third intervention period after a 14-day wash-out period, they were repeatedly administered with 100 mg of tegoprazan, 1000 mg of amoxicillin, and 500 mg of clarithromycin twice a day for six days and administered once a day on the seventh day. Following the last dose of each intervention period, pharmacokinetic blood samples were collected for 17 times over 72 hours in the first period, 14 times over 48 hours in the second period, and 19 times over 120 hours in the third period.
Drugs were administered to subjects of group 2 (12 person) in the reverse order to the way the study was conducted on group 1 in the first and second intervention periods and in the same order in the third intervention period. Pharmacokinetic blood samples were collected in the same manner as group 1.
The average plasma concentrations of tegoprazan, clarithromycin, and amoxicillin were measured and time-based plasma concentration and time-based drug concentration patterns were observed when tegoprazan was repeatedly administered alone, amoxicillin/clarithromycin were repeatedly administered and tegoprazan, amoxicillin, and clarithromycin were repeatedly administered in combination.
Pharmacokinetics of tegoprazan, amoxicillin, and clarithromycin were evaluated. Descriptive statistics of pharmacokinetic evaluation parameters were presented. Point estimates for geometric mean ratio between each group and 90% confidence interval were calculated from the log-converted primary pharmacokinetic evaluation parameters by using a linear mixed effect model.

intragastric pH = experiment: Clinical study 1, Cohort 2: 24-hour intragastric pH measurement on repeated co-administration; assay type: in vivo, human; details: with amoxicillin/clarithromycin
From the text: To identify an effect of eradicating Helicobacter pylori in the present invention, a clinical study was designed in accordance with a randomized, open-label, active-controlled, parallel and multiple-dose design. A total of 221 patients were subjected to screening for this study. Out of them, 36 patients were registered thereto and the completed clinical results were obtained from 34 patients.
Particularly, the 36 patients above were divided into three patient groups (T1, T2 and R) and the clinical study was performed accordingly. […]
The T1 group was repeatedly given 50 mg of CJ-12420 and 1000 mg of amoxicillin/500 mg of clarithromycin twice a day for seven days; the T2 group was repeatedly given 100 mg of CJ-12420 and 1000 mg of amoxicillin/500 mg of clarithromycin twice a day for seven days; and the R group was repeatedly given 40 mg of pantoprazole and 1000 mg of amoxicillin/500 mg of clarithromycin twice a day for seven days. An intragastric pH was measured from all the subjects on Day 1 for 24 hours, and the intragastric pH was also measured for 24 hours on Day 1 and Day 7 of repeated administration. Also, a negative conversion rate was calculated upon a follow-up visit paid by subjects who were identified to be H. pylori positive on the UBT test during screening, and stability evaluation was performed according to a predetermined schedule. […]

[2] = tegoprazan 100 mg twice a day, combination with amoxicillin 1000 mg/clarithromycin 500 mg versus alone
[3] = clarithromycin 500 mg with amoxicillin 1000 mg twice a day, with versus without tegoprazan 100 mg

Row | increase of AUC of tegoprazan when administered in combination with amoxicillin/clarithromycin [1, 2] [times] | increase of Cmax of tegoprazan when administered in combination with amoxicillin/clarithromycin [1, 2] [times] | AUC of clarithromycin when administered in combination with tegoprazan [1, 3] | Cmax of clarithromycin when administered in combination with tegoprazan [1, 3] | SMILES | time to increase pH to 6 or more right after the administration (intragastric pH)
1 | 2.70 | 2.24 | – | – | Cc1nc2c(OC3CCOc4cc(F)cc(F)c43)cc(C(=O)N(C)C)cc2[nH]1 (centres unmarked) [Tegoprazan, 4-[(5,7-difluoro-3,4-dihydro-2H-chromene-4-yl)oxy]-N,N,2-trimethyl-1H-benzimidazole-6-carboxamide] | two
2 | – | – | showed a tendency to increase | showed a tendency to increase | CC[C@H]1OC(=O)[C@H](C)[C@@H](O[C@H]2C[C@@](C)(OC)[C@@H](O)[C@H](C)O2)[C@H](C)[C@@H](O[C@@H]2O[C@H](C)C[C@H](N(C)C)[C@H]2O)[C@](C)(OC)C[C@@H](C)C(=O)[C@H](C)[C@@H](O)[C@]1(C)O [clarithromycin, (3R,4S,5S,6R,7R,9R,11R,12R,13S,14R)-6-[(2S,3R,4S,6R)-4-(dimethylamino)-3-hydroxy-6-methyloxane-2-yl]oxy-14-ethyl-12,13-dihydroxy-4-[(2R,4R,5S,6S)-5-hydroxy-4-methoxy-4,6-dimethyloxane-2-yl]oxy-7-methoxy-3,5,7,9,11,13-hexamethyl-oxacyclotetradecane-2,10-dione, reference compound] | –

Reference: patent US20250241897A1, “COMPOSITION FOR ERADICATING HELICOBACTER PYLORI” (HK INNO.N CORPORATION, priority 2018, published 2025)
